According to patent publication US20020169147A1, “Compositions for controlling pests” (priority 2001, published 2002):

Test system: Dermatophagoides pteronyssinus
Assay: Efficacy against mites (ticking in plastic dish, rated under a stereomicroscope)
Format: in vivo
Conditions: 0.4 ml applied to ticking; mixed population; rated after 2 hours, 1, 3 and 7 days; sum of three experimental units after end of experiment; control isopropanol/water = 9.0
From the text: A mixed population of the species Dermatophagoides pteronyssinus is used.
The upper rim of a plastic dish (Ø 7 cm, height 3 cm) is provided with glue and then covered with a piece of ticking of the same diameter. A spatula-tip full from a culture dish containing mites and feed (ground Tetramin) is placed on the ticking.
The dish is then placed on an inverted Petri dish in a plastic container (33×22 cm, height 6.5 cm), containing saturated sodium chloride solution, and the container is closed with a lid.
The next day, 0.4 ml of the composition of the invention is applied to the material.
The set-up is illuminated by daylight, the temperature is 24-26° C., and the relative atmospheric humidity within the closed plastic container is approximately 75%.
After 2 hours, 1, 3, and 7 days the state of the mites in comparison with a control treated only with isopropanol/water (1:1) is rated under a stereomicroscope (3=numerous mites, 0=no mites). Direct counting is impossible since dead animals are difficult to see.
If required (control, ineffective products), more feed is added.
Three experimental units are set up for each experiment, and after the end of the experiment the sum of the scores is recorded.

Compound | sum of the scores of the state of the mites (0 = no mites, 9 = numerous mites)
Oc1ccccc1-c1ccccc1 [0.1% o-Phenylphenol, o-Phenylphenol] | 9.0
CC(O)CO (stereo not shown) [5.0% Propylene glycol, Propylene glycol] | 9.0
O=C(OCc1ccccc1)c1ccccc1 [5.0% Benzyl benzoate, Benzyl benzoate] | 9.0
CCCCCCCCCCCCOS(=O)(=O)[O-].[Na+] [1.0% Na lauryl sulphate, Na lauryl sulphate] | 9.0
